Earlier results as cited in patent EP4209496A1, “NOVEL FLUORESCENT BODIPY COMPOUNDS DISPLAYING ABSORPTION AND EMISSION IN THE NIR REGION” (Université de Strasbourg, priority 2022, dated 2023).
Like-named read-outs stand apart in the source and are kept apart here.

| λem (solvent: PBS buffer) | φf (solvent: PBS buffer) | λem (solvent: biological serum) | φf (solvent: biological serum) | SMILES |
| --- | --- | --- | --- | --- |
| 774 nm | 28% | – | – | CCN1C(=CC=CC=CC=CC2=[N+](CCCCCC(=O)O)c3ccc(S(=O)(=O)O)cc3C2(C)C)C(C)(C)c2cc(S(=O)(=O)[O-])ccc21 [Cy7] |
| – | – | 789 nm | 12% | CC1(C)C(=CC=C2CCCC(C=CC3=[N+](CCCCCC(=O)[O-])c4ccc(S(=O)(=O)[O-])cc4C3(C)C)=C2Oc2ccc(S(=O)(=O)[O-])cc2)N(CCCCS(=O)(=O)[O-])c2ccc(S(=O)(=O)[O-])cc21.[Na+].[Na+].[Na+].[Na+] [IRDye800CW] |
| – | – | 822 nm | 9% | CC1(C)C(/C=C/C=C/C=C/C=C2\N(CCCCS(=O)(=O)O)c3ccc4ccccc4c3C2(C)C)=[N+](CCCCS(=O)(=O)[O-])c2ccc3ccccc3c21 [Indocyanine green] |
| – | – | 686 nm | 10% | CN(C)c1ccc2nc3ccc(=[N+](C)C)cc-3sc2c1 [Methylene blue] |
